# According to patent US10112950B2, “Substituted imidazo[1,2-a]pyrazines as LSD1 inhibitors” (Incyte Corporation, priority 2014, dated 2018):
# Biological target: LSD-1 enzyme (Homo sapiens (Human), UniProt O60341)
# Experiment: LANCE LSD1/KDM1A demethylase assay (LSD1 histone demethylase biochemical assay)
# Settings: 1 nM LSD-1 enzyme, 1 hour preincubation at 25° C., 0.4 μM Biotin-labeled Histone H3 peptide substrate
row,Structure (SMILES),IC50
1,"C[C@@H](O)c1nc2cc(-c3c(-c4ccc(C#N)cc4)nc(N4CCC(N(C)C)CC4)c4nccn34)ccc2n1C [Example 113, 4-(8-[4-(dimethylamino)piperidin-1-yl]-5-{2-[(1R)-1-hydroxyethyl]-1-methyl-1H-benzimidazol-5-yl}imidazo[1,2-a]pyrazin-6-yl)benzonitrile]",≤ 0.05 µM
2,"Cc1nc2cc(-c3c(-c4ccc(C#N)cc4)nc(N4CCC(N(C)C)CC4)c4nccn34)ccc2n1C [Example 115, 4-[8-[4-(dimethylamino)piperidin-1-yl]-5-(1,2-dimethyl-1H-benzimidazol-5-yl)imidazo[1,2-a]pyrazin-6-yl]benzonitrile]",≤ 0.05 µM
3,"COc1ncc(-c2c(-c3ccc(C#N)cc3)nc(N3CCC(N(C)C)CC3)c3nccn23)cc1O [Example 118, 4-[8-[4-(dimethylamino)piperidin-1-yl]-5-(5-hydroxy-6-methoxypyridin-3-yl)imidazo[1,2-a]pyrazin-6-yl]benzonitrile]",≤ 0.05 µM
4,"COc1ncc(-c2c(-c3ccc(C#N)cc3)nc(OC[C@@H]3CCCN(C)C3)c3nccn23)cc1O [Example 119, 4-(5-(5-hydroxy-6-methoxypyridin-3-yl)-8-{[(3R)-1-methylpiperidin-3-yl]methoxy}imidazo[1,2-a]pyrazin-6-yl)benzonitrile]",≤ 0.05 µM
